# Patent publication US4857652A, “Chemiluminescent 1,2-dioxetane compounds” (priority 1988, dated 1989)
# Where two headings read alike, the source gives them in different places.
# Assays:
# [1] = type: physicochemical
# Description: (§1) A solution of the dioxetane in a suitable solvent (e.g. o-xylene) was placed in the reaction vial as described above. The vial was placed in the sample holder which was maintained at a temperature such that thermal decomposition of the dioxetane was negligible. Instrument parameters were selected as above and data collection started. A solution of the releasing agent (e.g. base or fluoride) preferably in the reaction solvent was injected by syringe into the rapidly stirred dioxetane solution. The volume of releasing agent added was generally less than 5% of the total volume so that temperature fluctuation of the sample during the time course of the decay was minimal. The pseudo-first order decay was monitored for at least three half-lives.
# 2. Triggering the Chemiluminescence of Silyloxy-Substituted Dioxetanes with Fluoride Ion: Fluoride ion induced decomposition of 2c. […]. […]. A spectrum of the chemiluminescence obtained from the fluoride triggering of 2c in 1:1 aqueous/2-methoxyethanol is shown in FIG. 1 with the solid line. The fluorescence of the cleavage product (methyl 6-hydroxy-2-naphthoate) from the dioxetane is also shown with the dashed line for comparison.
# [2] = type: physicochemical; details: for base-induced decomposition, chemiluminescence: room temperature
# Description: as §1
# 1. Triggering the Chemiluminescence of Hydroxy-Substituted Dioxetanes with Base: Potassium tert-butoxide induced decomposition of 2b. […].
# [3] = biological target: T1, Acetylcholinesterase from human erythrocytes (Homo sapiens, UniProt P22303); assay: Enzymatic triggering of chemiluminescence with acetylcholinesterase; type: biochemical; details: 10 μL stock in 3 mL 0.05M phosphate buffer pH 8.0, 37.0° C.
# T1 construct: purchased Sigma Chemical Co. C-3389; host or cells: human erythrocytes
# Source text: Acetylcholinesterase, an enzyme of considerable biological significance, hydrolyzes acetylcholine to choline and acetic acid under physiological conditions. It was of interest to determine whether this enzyme would also initiate the chemiluminescent decomposition of the acetyl-protected dioxetane 2e by removal of the acetyl group. Acetylcholinesterase (C-3389) from human erythrocytes was purchased from Sigma Chemical Co. as a lyophilized powder containing phosphate buffer salts. […]. Addition of more dioxetane during this period generated more light.
# [4] = type: physicochemical; details: 0.002M in 2-methoxyethanol, stored at 0° C.
# Description: (§2) A secondary stock solution of the acetate-protected dioxetane 2e was made by evaporating an aliquot of the methylene chloride stock equivalent to 10 micromoles of dioxetane and dissolving in 5.0 mL of 2-methoxyethanol to give a final concentration of 0.002M. […] Buffer solutions prepared in distilled water were 0.05M phosphate pH 7.6 and 8.0, 0.02M Tris (tris-hydroxymethylaninomethane maleate) pH 7.6, and pH 9.0 phosphate/borate buffer. Aryl esterase (also called carboxylic ester hydrolase (P-5221)) from porcine liver was purchased from Sigma Chemical Co. as a suspension of 11 mg of protein per mL in 3.2M (NH4)2 SO4 solution pH 8.0. Each mg of protein is equivalent to 260 Units, where 1 Unit is defined as the amount which will hydrolyze 1 micromole of ethyl butyrate in 1 minute at pH 8.0, 25° C. […] Injection of 1 μL of […] of aryl esterase to the stirred solution caused a chemiluminescent signal to appear. The intensity reached a maximum at about 3 minutes and decayed over a 30 minute period.
# [5] = type: physicochemical; details: for Ea (activation energy for decomposition) / k at 25° C.: in xylene
# Description: Rates of dioxetane decomposition were monitored by the decay of chemiluminescence of aerated solutions. A cylindrical Pyrex vial equipped with magnet stir bar was filled with 3-4 mL of the reaction solvent, sealed with a Teflon-lined screw cap and placed in the thermostatted sample block of the chemiluminescence-measuring apparatus (Black Box). Temperature control was provided by an external circulating water bath. Appropriate values for the instrument gain and optical slit size were selected. […]. The vial was sealed with a Teflon-lined screw cap to prevent evaporation when high temperatures were used. Measurement of the signal was begun by opening the shutter. The chemiluminescent decay was generally recorded for at least three half-lives. Calculation of the first-order rate constant, k, from the In(Intensity) vs. time data was performed by a computer program utilizing a standard least-squares treatment. The correlation coefficient, r, was typically at least 0.999 and varied less than 5% between replicate samples. The observed rate was not measurably concentration dependent.
# Activation parameters for decomposition of the dioxetanes were calculated from plots of In k.vs. 1/T (Arrhenius eq.) or In k/t vs. 1/T (Eyring eq.) by a standard least-squares linear regression analysis.
# [6] = Stability of dioxetane in aqueous buffers (IMAX with delay before the enzyme was added); type: physicochemical
# Description: Stability of Enzyme and Dioxetane to Reaction Conditions. Many dioxetanes are known to be destroyed via a non-luminescent pathway by acid catalyzed processes in aprotic solvents. Similarly, amines are also known to cause the catalytic destruction of dioxetanes via an electron-transfer process. The stability of the dioxetane to the aqueous buffers used in the enzyme reactions, especially Tris buffer, was a matter of concern. A series of experiments were performed to assess the stability of the dioxetane in these buffers over the expected time course of a typical run. A comparison was made between the maximum light intensity produced for a given buffer and temperature with delays of 0 and 30 minutes before the enzyme was added. If the dioxetane were decomposing in the buffer then IMAX of the run where the dioxetane was exposed to the buffer for 30 minutes would be lower provided the enzyme is not saturated. […] In 0.05M phosphate buffer, pH 7.6 at 25° C. and 37 ° C. the percent decrease in IMAX due to the 30 minute delay was, respectively, 0 and 7% while in 0.02M Tris buffer, pH 7.6 at 25° C. a 12% decrease was found and at 37° C. after a delay of one hour a 34% decrease occurred.
# [7] = tested on: Aryl esterase (carboxylic ester hydrolase) from porcine liver; assay: Enzymatic triggering of chemiluminescence with aryl esterase; type: biochemical; details: for effect of competing substrate on light intensity of 2e/esterase reaction: 10 μL of […] added at maximum emission, pH 7.6 phosphate buffer, 37° C.; for hydrolysis by the enzyme (UV spectroscopy): under the reaction conditions
# Description: as §2
# (3.) When distilled water was substituted for the Tris buffer, no chemiluminescence signal was observed, but on adding Tris buffer to this solution light emission similar to that above was produced. […] Addition of untreated enzyme preparation to this solution again produced light. […] The emission could be totally extinguished by addition of sufficient SDS. The decrease in light emission is not due to photophysical quenching of the excited state since thermal decomposition in the same solvent system at elevated temperatures results in readily detectable chemiluminescence.
# This type of behavior explains the effect of the addition of the known esterase substrates α-naphthyl acetate and β-naphthyl acetate. […] A solution of 25 μL of the dioxetane stock (0.002M) in 3 mL of pH 7.6 phosphate buffer maintained at 37° C. was treated with 5 μL of the enzyme to initiate the chemiluminescence. At the point of maximum emission 10 μL of 0.011M solution of either α- or β-naphthyl acetate were added.
# [8] = Triggering properties of further dioxetanes (general statement); type: physicochemical
# Description: as §1
# [9] = polar aprotic solvents such as acetonitrile
# [10] = 0.3 μmol dioxetane, 0.26 units aryl esterase, pH 7.6 Tris buffer, 25° C.
# [11] = compared with dioxetanes 2a-c and 2e
# T1 sequence (P22303 other isoform, or with tags, fused parts or gaps): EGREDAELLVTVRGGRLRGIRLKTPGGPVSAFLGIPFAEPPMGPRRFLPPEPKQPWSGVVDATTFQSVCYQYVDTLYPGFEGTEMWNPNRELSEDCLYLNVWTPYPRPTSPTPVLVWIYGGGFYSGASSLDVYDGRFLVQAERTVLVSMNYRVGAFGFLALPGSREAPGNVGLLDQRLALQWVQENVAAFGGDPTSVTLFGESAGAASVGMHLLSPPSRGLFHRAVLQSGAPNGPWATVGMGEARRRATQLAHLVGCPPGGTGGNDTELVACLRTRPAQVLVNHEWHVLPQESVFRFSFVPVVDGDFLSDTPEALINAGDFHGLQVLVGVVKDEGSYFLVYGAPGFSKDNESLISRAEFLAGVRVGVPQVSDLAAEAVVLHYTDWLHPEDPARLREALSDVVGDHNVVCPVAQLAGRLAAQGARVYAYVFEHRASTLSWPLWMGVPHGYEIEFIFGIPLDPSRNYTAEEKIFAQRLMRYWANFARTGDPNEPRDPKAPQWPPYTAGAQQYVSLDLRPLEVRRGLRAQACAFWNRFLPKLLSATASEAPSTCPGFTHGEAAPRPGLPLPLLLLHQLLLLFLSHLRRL
compound,measurement,setting,value
"COC1(c2cccc(O[Si](C)(C)C(C)(C)C)c2)OOC12C1CC3CC(C1)CC2C3 (centres unmarked) [Dioxetane 8b, 4-(3-tert-Butyldimethylsilyloxyphenyl)-4-methoxyspiro[1,2-dioxetane-3,2'-adamantane]]",chemiluminescence in polar aprotic solvents,[1]; [9],bright chemiluminescence
COC1(c2cccc(O)c2)OOC12C1CC3CC(C1)CC2C3 (centres unmarked) [Dioxetane 8a],"base-induced decomposition, chemiluminescence",[2],produced chemiluminescence at room temperature
"COC1(c2ccc3cc(OC(C)=O)ccc3c2)OOC12C1CC3CC(C1)CC2C3 (centres unmarked) [Dioxetane 2e, 4-(6-Acetoxy-2-naphthyl)-4-methoxyspiro[1,2-dioxetane-3,2'-adamantane]]",duration of light emission,[3],20 s
same,stability of stock solution,[4],stable indefinitely
same,persistence of thermal chemiluminescence,[5]; aliquot in 3 mL o-xylene at 95° C.,persisted for several hours
same,percent decrease in IMAX due to delay,"[6]; 0.02M Tris buffer pH 7.6, 25° C., 30 minute delay",12%
same,percent decrease in IMAX due to delay,"[6]; 0.02M Tris buffer pH 7.6, 37° C., delay of one hour",34%
same,percent decrease in IMAX due to delay,"[6]; 0.05M phosphate buffer pH 7.6, 25° C., 30 minute delay",0%
same,percent decrease in IMAX due to delay,"[6]; 0.05M phosphate buffer pH 7.6, 37° C., 30 minute delay",7%
same,period of decay of chemiluminescence,[7]; [10],30 min
same,time at which intensity reached a maximum,[7]; [10],about 3 minutes
same,"maximum light intensity, IMAX, versus temperature","[7]; 1 μL enzyme, Tris buffer, 25°, 37° and 50° C.",increased with increasing temperature
same,chemiluminescence signal without enzyme,"[7]; 150 μL stock in 3.0 mL pH 7.6 Tris buffer, 25° C., before enzyme",no chemiluminescence signal was detected
"CC(C)(C)[Si](C)(C)Oc1ccc2c(c1)C1(OOC13C1CC4CC(C1)CC3C4)c1ccccc1-2 (centres unmarked) [Dioxetane 4b, Dispiro[adamantane-2,3'-[1,2]dioxetane-4',9""-(2-tert-butyldimethylsilyloxy-9-fluorene)]]",chemiluminescence in polar aprotic solvents,[1]; [9],bright chemiluminescence
CC(C)(C)[Si](C)(C)Oc1ccc2c(c1)Oc1ccccc1C21OOC12C1CC3CC(C1)CC2C3 (centres unmarked) [Dioxetane 6b],triggering properties,[8],triggering properties similar to dioxetanes 2a-c and 2e
same,chemiluminescence in polar aprotic solvents,[1],bright chemiluminescence
Oc1ccc2c(c1)C1(OOC13C1CC4CC(C1)CC3C4)c1ccccc1-2 (centres unmarked) [Dioxetane 4a],"base-induced decomposition, chemiluminescence",[2],produced chemiluminescence at room temperature
same,triggering properties,[8]; [11],triggering properties similar to dioxetanes 2a-c and 2e
Oc1ccc2c(c1)Oc1ccccc1C21OOC12C1CC3CC(C1)CC2C3 (centres unmarked) [Dioxetane 6a],"base-induced decomposition, chemiluminescence",[2],produced chemiluminescence at room temperature
same,triggering properties,[8]; [11],triggering properties similar to dioxetanes 2a-c and 2e
CC(=O)Oc1ccc2ccccc2c1 [β-naphthyl acetate],effect of competing substrate on light intensity of 2e/esterase reaction,[7],rapid decrease in light intensity was noted followed by restoration of the original intensity within less than one minute
same,hydrolysis by the enzyme (UV spectroscopy),[7],hydrolyzed by the enzyme in seconds
COC1(c2ccc3cc(O[Si](c4ccccc4)(c4ccccc4)C(C)(C)C)ccc3c2)OOC12C1CC3CC(C1)CC2C3 (centres unmarked) [Dioxetane 2d],triggering properties,[8],triggering properties similar to dioxetanes 2a-c and 2e
same,chemiluminescence in polar aprotic solvents,[1],bright chemiluminescence
"COC1(c2ccc3ccccc3c2)OOC12C1CC3CC(C1)CC2C3 (centres unmarked) [Dioxetane 2a, 4-Methoxy-4-(2-naphthyl)spiro[1,2-dioxetane-3,2'-adamantane]]",Ea (activation energy for decomposition),[5],29.7
same,k at 25° C.,[5]; 25° C.,3.17e-09 s⁻¹
"CCCCCCCCCCCCOS(=O)(=O)[O-].[Na+] [sodium lauryl sulfate (SDS), sodium lauryl sulfate]",effect of enzyme inhibitor on light emission of 2e/esterase reaction,"[7]; added at maximum emission, Tris buffer, 1.5 μL enzyme",irreversible decrease in the intensity
CC(=O)Oc1ccc2c(c1)Oc1ccccc1C21OOC12C1CC3CC(C1)CC2C3 (centres unmarked) [Dioxetane 6c],triggering properties,[8]; [11],triggering properties similar to dioxetanes 2a-c and 2e
COC1(c2ccc3cc(O[Si](C)(C)C(C)(C)C)ccc3c2)OOC12C1CC3CC(C1)CC2C3 (centres unmarked) [Dioxetane 2c],half-life of decomposition in the absence of fluoride ion,"[5]; 25° C., no fluoride",2.5 years
same,Ea (activation energy for decomposition),[5],27.0
same,k at 25° C.,[5]; 25° C.,8.72e-09 s⁻¹
same,"half-life of chemiluminescence decay, fluoride triggered","[1]; 10^-4 M in 0.01M tetrabutylammonium fluoride in 2-methoxyethanol, room temperature, 100 µM",about 20 minutes
CC(=O)Oc1cccc2ccccc12 [α-naphthyl acetate],effect of competing substrate on light intensity of 2e/esterase reaction,[7],rapid decrease in light intensity was noted followed by restoration of the original intensity within less than one minute
same,hydrolysis by the enzyme (UV spectroscopy),[7],hydrolyzed by the enzyme in seconds
"COC1(c2ccc3cc(O)ccc3c2)OOC12C1CC3CC(C1)CC2C3 (centres unmarked) [Dioxetane 2b, 4-(6-Hydroxy-2-naphthyl)-4-methoxyspiro[1,2-dioxetane-3,2'-adamantane]]","half-life of chemiluminescence decay, base triggered","[2]; 10^-4 M in o-xylene, potassium t-butoxide 0.005M, 25° C., 100 µM",approximately 20 seconds
same,base triggered chemiluminescence,[2]; in methanol with KOH or in o-xylene with n-BuLi,bright blue chemiluminescence with similar decay rates
same,Ea (activation energy for decomposition),[5],29.7
same,k at 25° C.,[5]; 25° C.,3.83e-09 s⁻¹
